From PubChem BioAssay (NCI)
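Method: 48-hour compound exposure of cells in 96-well plates, five concentrations, linear interpolation of endpoints. TGI: concentration producing complete growth inhibition.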

Legend:
Test in all cases: NCI tumour cell line growth inhibition, 48 h
BT-549 breast = system: BT-549 breast
EKVX NSCLC = system: EKVX NSCLC
HCC-2998 colon = system: HCC-2998 colon
HCT-116 colon = system: HCT-116 colon
HL-60(TB) leukemia = system: HL-60(TB) leukemia
HOP-62 NSCLC = system: HOP-62 NSCLC
HS 578T breast = system: HS 578T breast
MALME-3M melanoma = system: MALME-3M melanoma
OVCAR-4 ovarian = system: OVCAR-4 ovarian
PC-3 prostate = system: PC-3 prostate
SF-295 CNS = system: SF-295 CNS
SK-MEL-28 melanoma = system: SK-MEL-28 melanoma
UACC-257 melanoma = system: UACC-257 melanoma
UACC-62 melanoma = system: UACC-62 melanoma
UO-31 renal = system: UO-31 renal
RPMI-8226 leukemia = system: RPMI-8226 leukemia

SMILES	TGI (BT-549 breast)	TGI (EKVX NSCLC)	TGI (HCC-2998 colon)	TGI (HCT-116 colon)	TGI (HL-60(TB) leukemia)	TGI (HOP-62 NSCLC)	TGI (HS 578T breast)	TGI (MALME-3M melanoma)	TGI (OVCAR-4 ovarian)	TGI (PC-3 prostate)	TGI (SF-295 CNS)	TGI (SK-MEL-28 melanoma)	TGI (UACC-257 melanoma)	TGI (UACC-62 melanoma)	TGI (UO-31 renal)	TGI (RPMI-8226 leukemia)
CC1(C)OC(=O)C(Cc2ccccc2)(Cc2ccccc2)C(=O)O1	> 100 µM	> 100 µM	> 100 µM	> 100 µM	> 100 µM	> 100 µM	> 100 µM	> 100 µM	> 100 µM	> 100 µM	> 100 µM	> 100 µM	> 100 µM	> 100 µM	> 100 µM	
COc1cc(C2c3c(ccc4ccccc34)C(=O)C3CCC(=O)N32)cc(OC)c1O (configuration not stated)	> 25 µM	> 25 µM		> 25 µM	> 25 µM	> 25 µM			> 25 µM	> 25 µM	> 25 µM	> 25 µM	> 25 µM	> 25 µM	> 25 µM	> 25 µM
COc1cc2c[n+](C)c3c(c2cc1OC)Cc1cc2c(cc1-3)OCO2	> 100 µM	> 100 µM		> 100 µM	> 100 µM	> 100 µM	> 100 µM	> 100 µM	> 100 µM	> 100 µM	> 100 µM	> 100 µM	> 100 µM	> 100 µM	> 100 µM	> 100 µM
c1ccc([P+](c2ccccc2)(c2ccccc2)C2c3ccccc3-c3ccccc32)cc1	7.44 µM		9.62 µM	2.39 µM	3.92 µM	4.7 µM	5.75 µM	15.1 µM		5.46 µM	5.35 µM	8.03 µM	5.91 µM	5.02 µM	8.03 µM	
O=P(O)(CN1CCN(CP(=O)(O)c2ccccc2)CCN(CP(=O)(O)c2ccccc2)CC1)c1ccccc1	> 100 µM	> 100 µM	> 100 µM	> 100 µM	> 100 µM	> 100 µM		> 100 µM	> 100 µM		> 100 µM	> 100 µM			> 100 µM	> 100 µM
O=c1c2ccccc2[nH]c2c(Cl)cc(Cl)c(N3CCCCC3)c12	> 100 µM	> 100 µM	> 100 µM	> 100 µM	74.7 µM	> 100 µM			> 100 µM	> 100 µM	> 100 µM	> 100 µM	> 100 µM	> 10 µM	55.5 µM	> 100 µM
S=C(N1CCN(c2ccccc2)CC1)N1CCN(c2ccccc2)CC1	> 100 µM	> 100 µM	> 100 µM	> 100 µM		> 100 µM	> 100 µM	> 100 µM	> 100 µM	> 100 µM	> 100 µM	> 100 µM	> 100 µM	> 100 µM	> 100 µM	> 100 µM
CNC(=O)NS(=O)(=O)c1ccc(C)cc1	> 100 µM			> 100 µM	> 100 µM	> 100 µM	> 100 µM	> 100 µM	> 100 µM	> 100 µM	> 100 µM	> 100 µM	> 100 µM	> 100 µM	> 100 µM	> 100 µM
COC1C(O)C(C)OC(OC2CCC3(C)C(CCC4C3C(O)CC3(C)C(C5=CC(=O)OC5)CCC43O)C2)C1O (configuration not stated)	0.429 µM	0.536 µM	4.91 µM	0.533 µM	0.665 µM	0.473 µM	> 100 µM	0.667 µM		5.17 µM	1.23 µM	1.62 µM	3.13 µM	1.25 µM		0.793 µM
Cc1nnc(Sc2nc(C#N)c(C#N)nc2Sc2nnc(C)s2)s1	27.7 µM	> 73.6 µM	51.8 µM	> 64.3 µM	8.83 µM	> 74.3 µM	99.4 µM	4.48 µM	> 80.1 µM	30.7 µM	73.8 µM	47 µM	62 µM	34.9 µM	23.9 µM	
CCCCC(=O)Nc1ccc2c(C)cc(-c3ccc(-c4cc(-c5ccc(C)cc5)cc(-c5ccc(-c6cc(C)c7ccc(NC(=O)CCCC)nc7n6)cc5)n4)cc3)nc2n1	> 100 µM	> 100 µM	> 100 µM	> 100 µM		> 100 µM		> 100 µM	> 100 µM	> 100 µM	> 100 µM	> 100 µM	> 100 µM	> 100 µM	> 100 µM	> 100 µM
CC1C(c2ccccc2O)c2cc3c(cc2OC1N1CCOCC1)OCO3 (configuration not stated)	> 100 µM	> 100 µM	64.3 µM	75.9 µM	40 µM	35.8 µM	57.9 µM	35.1 µM		> 100 µM	62 µM	> 100 µM	47 µM	90.2 µM	> 100 µM	39.1 µM
O=C1/C(=C/c2ccc(Cl)cc2)CSC/C1=C\c1ccc(Cl)cc1	4.99 µM	41.7 µM	4.09 µM	3.69 µM	3.69 µM	16.2 µM		36.9 µM	14.1 µM	16 µM	4.21 µM	5.51 µM	5.08 µM	2.83 µM	3.93 µM	5 µM
COC(=O)/C(C#N)=C(\N)c1c(C)c2ccccc2oc1=N	> 100 µM	> 100 µM		> 100 µM	> 100 µM	> 100 µM	> 100 µM		> 100 µM	> 100 µM	> 100 µM	> 100 µM	> 100 µM	> 100 µM		> 100 µM
Cc1cc2nc(N3C(=O)/C(=C/c4ccc(N(C)C)cc4)N=C3c3ccccc3)sc2cc1C	> 100 µM	> 100 µM	37.6 µM	43 µM	46.2 µM	> 100 µM	> 100 µM		> 100 µM	43.5 µM	> 100 µM	> 100 µM	> 100 µM	> 100 µM	87.4 µM	> 100 µM
